Tests used:
Test in all cases: relative viability (nuclei count vs DMSO), 5 days (fraction); higher = more cells survive
[1] = compound: C1=CC(=CC=C1NC(=S)NNC2=C(C=C(C=C2[N+](=O)[O-])C(F)(F)F)[N+](=O)[O-])F [Kobe2602] + CCNC(=O)c1noc(-c2cc(C(C)C)c(O)cc2O)c1-c1ccc(CN2CCOCC2)cc1 [Luminespib] (partner 0.01 µM)
How it was run: (§1)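 One day after seeding in 1536-well plates, lung cancer cell lines were dosed by pin tool. Dosing was either single-drug or a fixed anchor-drug dose plus five library-drug doses (not always all listed) in √10 steps. After 5 days, nuclei were stained in one fix-and-stain step and counted on 4× images, and relative viability is the nuclei count of treated wells over that of vehicle wells, given as the median of duplicate plates.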

[2] = compound: C1=CC(=CC=C1NC(=S)NNC2=C(C=C(C=C2[N+](=O)[O-])C(F)(F)F)[N+](=O)[O-])F [Kobe2602] + CS(=O)(=O)CCNCc1ccc(-c2ccc3ncnc(Nc4ccc(OCc5cccc(F)c5)c(Cl)c4)c3c2)o1 [Lapatinib] (partner 2 µM)
How it was run: as §1

[3] = compound: C1=CC(=CC=C1NC(=S)NNC2=C(C=C(C=C2[N+](=O)[O-])C(F)(F)F)[N+](=O)[O-])F [Kobe2602] + NC(=O)Nc1cc(-c2cccc(F)c2)sc1C(=O)N[C@H]1CCCNC1 [AZD7762] (partner 0.2 µM)
How it was run: as §1

[4] = compound: O[C@@H](COc1cccc2ncccc12)CN1CCN([C@@H]2c3ccccc3[C@@H]3[C@H](c4ccccc42)C3(F)F)CC1 [Zosuquidar] + CS(=O)(=O)N1CCN(Cc2cc3nc(-c4cccc5[nH]ncc45)nc(N4CCOCC4)c3s2)CC1 [Pictilisib] (partner 1 µM)
How it was run: as §1

Cell Line	relative viability ([1]; first compound 0.2 µM)	relative viability ([1]; first compound 0.6325 µM)	relative viability ([1]; first compound 2 µM)	relative viability ([1]; first compound 6.325 µM)	relative viability ([1]; first compound 20 µM)	relative viability ([2]; first compound 0.2 µM)	relative viability ([2]; first compound 0.6325 µM)	relative viability ([2]; first compound 2 µM)	relative viability ([2]; first compound 6.325 µM)	relative viability ([2]; first compound 20 µM)	relative viability ([3]; first compound 0.2 µM)	relative viability ([3]; first compound 0.6325 µM)	relative viability ([3]; first compound 2 µM)	relative viability ([3]; first compound 6.325 µM)	relative viability ([3]; first compound 20 µM)	relative viability ([4]; first compound 0.01 µM)	relative viability ([4]; first compound 0.03162 µM)	relative viability ([4]; first compound 0.3162 µM)	relative viability ([4]; first compound 1 µM)	relative viability ([4]; first compound 0.1 µM)
LCLC-97TM1	0.749	0.718	0.739	0.741	0.819	1.05	1.01	0.817	0.965	0.893	0.364	0.303	0.341	0.279	0.37	0.203	0.219	0.192	0.226	
LU99A	0.281	0.29	0.227	0.2	0.343	0.989	0.921	0.959	0.97	1.07	0.356	0.381	0.31	0.279	0.356	0.252	0.275	0.327	0.4	0.354
NCI-H1299						0.997	0.991	0.949	1.01	0.935						0.623	0.836	0.796	0.861	0.968
NCI-H1355	0.795	0.686	0.607	0.775	0.75	0.942	1.01	0.992	0.876	0.929	0.744	0.7	0.744	0.676	0.815	0.427	0.375	0.546	0.476	0.354
HARA	0.752	1.05	0.688	0.776	0.69	0.677	0.844	0.689	0.697	0.814	0.304	0.266	0.477	0.356	0.379	0.589	0.404	0.5	0.49	0.312
LXF-289	0.7	0.799	0.637	0.606	0.708	0.872	0.891	0.88	0.874	0.873	1.06	1.08	1.08	1.06	1.08	0.767	0.776	0.818	0.781	0.747
201T	1.02	1.05	0.993	1.14	0.966	0.986	1.1	1.07	1.01	1.04	0.614	0.619	0.603	0.611	0.799	0.659	0.683	0.677	0.665	0.573
HCC-827	0.856	0.793	0.619	0.369	0.831	0.189	0.211	0.231	0.177	0.227	0.217	0.223	0.349	0.242	0.339	1.08	1.14	1.05	0.994	0.774
NCI-H1703						0.903	0.975	0.925	0.982	0.694		0.13	0.111		0.173	0.239	0.238	0.233	0.238	0.244
NCI-H1975	0.365	0.29	0.229	0.216	0.288	0.886	0.956	0.767	0.756	0.852	0.724	0.791	0.658	0.645	0.662	0.289	0.269	0.332	0.288	0.292
NCI-H2023	0.596	0.783	0.759	0.528	0.156	0.833	0.914	0.811	0.815	0.739						0.235	0.235	0.324	0.271	0.171
ChaGo-K-1	0.684	0.53	0.743	0.617	0.507						0.891	0.836	0.878	0.892	0.872	0.858	0.563	0.882	0.637	1.27
COR-L 105	0.591	0.896	0.848	0.643	0.719	0.369	0.381	0.379	0.38	0.401						0.404	0.383	0.492	0.351	0.418
SK-MES-1	0.67	0.778	0.853	0.832	0.406	0.465	0.488	0.427	0.436	0.464						0.324	0.324	0.394	0.392	0.33
A549						0.922	0.978	0.88	1.05	0.881						0.532	0.497	0.487	0.496	0.494
NCI-H23	0.248	0.201	0.227	0.214	0.202	0.999	1.36	1.08	1.05	1.07	0.332	0.312	0.217	0.197	0.182	0.479	0.525	0.574	0.496	0.393
NCI-H1993	0.673	0.794	0.605	0.658	0.769	0.718	0.727	0.783	0.814	0.875	0.812	0.847	0.611	0.698	0.688	0.766	0.913	0.875	0.644	0.804
Calu-6						1.08	1.14	1.1	1.04	0.995						0.855	0.942	0.976	0.918	1.02
NCI-H1648											0.741	0.656	0.586	0.624	0.66					
NCI-H1623	0.578	0.427	0.571	0.368	0.491															
NCI-H460	0.0275	0.0348	0.0337	0.0344	0.0251	0.962	0.983	1.06	1	0.999	0.64	0.756	0.681	0.652	0.56	0.326	0.393	0.437	0.393	0.27

Cell Line	relative viability ([1]; first compound 0.2 µM)	relative viability ([1]; first compound 0.6325 µM)	relative viability ([1]; first compound 2 µM)	relative viability ([1]; first compound 6.325 µM)	relative viability ([1]; first compound 20 µM)	relative viability ([2]; first compound 0.2 µM)	relative viability ([2]; first compound 0.6325 µM)	relative viability ([2]; first compound 2 µM)	relative viability ([2]; first compound 6.325 µM)	relative viability ([2]; first compound 20 µM)	relative viability ([3]; first compound 0.2 µM)	relative viability ([3]; first compound 0.6325 µM)	relative viability ([3]; first compound 2 µM)	relative viability ([3]; first compound 6.325 µM)	relative viability ([3]; first compound 20 µM)	relative viability ([4]; first compound 0.01 µM)	relative viability ([4]; first compound 0.03162 µM)	relative viability ([4]; first compound 0.3162 µM)	relative viability ([4]; first compound 1 µM)	relative viability ([4]; first compound 0.1 µM)
NCI-H3122	0.074	0.0661	0.0867	0.102	0.0834	1.04	0.981	1	1.03	1.06	0.984	0.963	0.935	1.09	1.04	0.616	0.662	0.641	0.608	0.524
HCC-44	1.05	0.97	0.984	1.13	0.921	1	1.05	1.01	1.03	0.954	0.951	0.952	1.04	0.982	0.892	0.615	0.57	0.742	0.815	0.603
HCC-78						1.02	0.903		0.418	1.18	0.7	0.675	0.748	0.588	0.774	0.211	0.235	0.232	0.402	
COR-L23	0.685	0.64	0.537	0.648	0.684	0.856	1.05	1.02	0.876	0.907						0.76	0.658	1.01	0.889	0.679
NCI-H2009	1.04	1.1	1.07	1.09	0.964	0.878	1.14	0.895	1.04	0.871						0.837	0.88	1.02	0.822	0.677
NCI-H2228	0.129	0.177	0.198	0.145	0.165	1.08	1.02	0.985	1.12	1.75						0.296	0.437	0.459	0.26	0.633
NCI-H2342	0.826	0.735	0.741	0.692	0.773						0.47	0.448	0.704	0.461	0.655					
NCI-H1563	0.579	0.492	0.52	0.543	0.512	0.912	1.37	1.03	1.04	1.02						0.596	0.632	0.664	0.661	0.622
LCLC-103H	0.908	1.03	0.935	0.913	0.765						0.76	0.842	0.791	0.848	0.81	0.541	0.569	0.607	0.737	0.542
NCI-H661	0.945	0.904	0.948	0.946	0.9	0.627	0.601	0.537	0.434	0.567						0.351	0.419	0.404	0.361	
NCI-H1650	0.188	0.185	0.177	0.211	0.178	0.833	1.07	0.773	0.941	0.875						0.555	0.688	0.686	0.586	0.531
HCC-366						1.05	1.16	0.963	0.979	0.968	0.22	0.269	0.312	0.183	0.421	0.154	0.185	0.151	0.195	0.15
NCI-H522	1.08	1.25	1.31	1.09	1.03						1.02	1.14	0.855	0.954	0.859					
SK-LU-1	0.204	0.222	0.189	0.188	0.205	0.859	0.88	0.92	0.859	0.817						0.552	0.642	0.689	0.543	0.567
NCI-H441	0.328	0.374	0.327	0.358	0.296						1.1	1.11	1.13	1.13	1.06	0.449	0.435		0.595	0.512
SW 1573	0.202	0.212	0.21	0.458	0.0872	1.34	1.25	1.05	1.1	1.14						0.425	0.465	0.626	0.597	0.446
SW 900	0.164	0.185	0.191	0.166	0.199						0.7	0.551	0.496	0.657	0.595					
EBC-1						0.211	0.201	0.204	0.227	0.208						0.41	0.52	0.458	0.377	0.395
IA-LM						0.584	0.614	0.732	0.805	0.811						0.306	0.394	0.315	0.324	0.342
NCI-H520	0.256	0.193	0.224	0.206	0.215	0.853	0.908	0.645	0.729	0.824						0.327	0.295	0.363	0.297	0.289
